In US20060049177A1, “Induction heating cooker” (LG Electronics Inc., priority 2004, published 2006) one finds IC50, SI and CC50 data, which are given here for 37 compounds.

Like-named read-outs stand apart in the source and are kept apart here.

The test system of one series is HIV-1. In words: in vitro anti-HIV assay: inhibition of HIV-induced cytopathic effect in MT-4 cells (MTT). The series is classed as cell-based. To be noted: for SI: selectivity index = ratio of CC50 to IC50. The procedure: (§1) A rapid, sensitive and automated assay procedure was used for the in vitro evaluation of anti-HIV agents. An […] T4-cell line, MT-4, which was previously shown (Koyanagi et al., Int. J. Cancer, 36, 445-451, 1985) to be highly susceptible to and permissive for HIV infection, served as the target cell line. Inhibition of the HIV-induced cytopathic effect was used as the end point. The viability of both HIV- and mock-infected cells was assessed spectrophotometrically via the in situ reduction of 3-(4,5-dimethylthiazol-2-yl)-2,5-diphenyltetrazolium bromide (MTT). The 50% […], cytotoxic concentration (CC50 in μM) was defined as the concentration of compound that reduced the absorbance of the mock-infected control sample by 50%. The percent protection achieved by the compound in HIV-infected cells was calculated by the following formula: [formula]
(§2) whereby (ODT)HIV is the optical density measured with a given concentration of the test compound in HIV-infected cells; (ODC)HIV is the optical density measured for the control untreated HIV-infected cells; (ODC)MOCK is the optical density measured for the control untreated mock-infected cells; all optical density values were determined at 540 nm. The dose achieving 50% protection according to the above formula was defined as the 50% inhibitory concentration (IC50 in μM). The ratio of CC50 to IC50 was defined as the selectivity index (SI).

The subject of the next series is MT-4 cells. Kind of series: cytotoxicity in mock-infected MT-4 cells (MTT). As to the method:
as §1, §2

Where [1] appears, read: HIV-infected MT-4 cells, dose achieving 50% protection against cytopathic effect, MTT, OD 540 nm, mean value, read-out: IC50.
Where [2] appears, read: Human immunodeficiency virus 1, MT4, HIV-infected MT-4 cells, dose achieving 50% protection against cytopathic effect, MTT, OD 540 nm, mean value, read-out: IC50.

As for `N#Cc1ccc(Nc2nc(Cc3c(Cl)cccc3Cl)nc(NCCCN)n2)cc1` [Compound 30], the half-inhibitory concentration (IC50) with HIV-1 (setting [1]) amounted to 40 nM. Further, the SI in the series with HIV-1 is on record as 416. Besides, the CC50 in the series on MT-4 cells stood at 16500 nM.
Take `N#Cc1ccc(Nc2nc(Cc3c(Cl)cccc3Cl)nc(NCCCNC(N)=O)n2)cc1` [Compound 23, N-[3-[[4-[(4-cyanophenyl)amino]-6-[(2,6-dichlorophenyl)methyl]-1,3,5-triazin-2-yl]amino]propyl]urea]: the half-inhibitory concentration (IC50) in the series with HIV-1 (setting [2]) stood at 340 nM. Further, the SI in the series on HIV-1 is given as 106.
`N#Cc1ccc(Nc2nc(N)nc(Cc3c(Cl)ccc(Cl)c3Cl)n2)cc1` [Compound 44]: in the series on HIV-1 (setting [1]), the 50% inhibitory concentration (IC50) came to 3 nM. In addition, the SI in the series with HIV-1 is on record as over 35087. In the series with MT-4 cells, this compound came in with a cytotoxic concentration (CC50) of over 100000 nM.
With “(±)-2-[[4-[(4-cyanophenyl)amino]-6-[(2,6-dichlorophenyl)amino]-6-[(2,6-dichloro-phenyl)methyl]-1,3,5-triazin-2-yl]amino-4-hydroxybutanamide [Compound 34]”, the IC50 with HIV-1 (setting [1]) came to 57 nM. Moreover, the SI in the series on HIV-1 was determined as 746. The compound further displayed a cytotoxic concentration (CC50) in the series on MT-4 cells of 42300 nM.
The matching figures for `N#Cc1ccc(Nc2nc(N)nc(Cc3c(F)cccc3C(F)(F)F)n2)cc1` [Compound 58]: 14 nM, 1418 and 20000 nM.
For `N#Cc1ccc(Nc2nc(N)nc(Cc3cc(F)cc(F)c3)n2)cc1` [Compound 59], in that order: 420 nM, over 241 and over 100000 nM.
Regarding `N#Cc1ccc(Nc2nc(N)nc(Cc3c(F)ccc(F)c3F)n2)cc1` [Compound 52], the IC50 in the series with HIV-1 (setting [1]) stood at 3 nM. The SI with HIV-1 was over 220.
As for `N#Cc1ccc(Nc2nc(N)nc(Cc3cc(F)ccc3F)n2)cc1` [Compound 51], the IC50 in the series with HIV-1 (setting [1]) stood at 31 nM. The SI with HIV-1 is given as over 640. The same compound had a CC50 in the series with MT-4 cells of over 20000 nM.
The matching figures for `N#Cc1ccc(Nc2nc(Cc3c(Cl)cccc3Cl)nc(NCCN)n2)cc1` [Compound 19]: 13 nM, 810 and 10400 nM.
The matching figures for `N#Cc1ccc(Nc2nc(Cc3c(Cl)cccc3Cl)nc(NCC(O)CO)n2)cc1` (stereo not shown) [Compound 26, (O)-4-[[4-[(2,6-dichlorophenyl)methyl]-6-[(2,3-dihydroxypropyl)amino]-1,3,5-triazin-2-yl]amino]benzonitrile]: 68 nM, 883 and 59700 nM.
Turning to `COC(=O)CNc1nc(Cc2c(Cl)cccc2Cl)nc(Nc2ccc(C#N)cc2)n1` [Compound 13], in the series on HIV-1 (setting [1]), the half-maximal inhibitory concentration (IC50) amounted to 110 nM. For the same compound, in the series with HIV-1, the SI is over 178. The compound further returned a cytotoxic concentration (CC50) with MT-4 cells of over 20000 nM.
Consider `CC(=O)Nc1nc(Cc2c(Cl)cccc2Cl)nc(Nc2ccc(C#N)cc2)n1` [Compound 22, N-[4-[(4-cyanophenyl)amino]-6-[(2,6-dichlorophenyl)methyl)-1,3,5-triazin-2-yl]-acetamide], for which the half-maximal inhibitory concentration (IC50) with HIV-1 (setting [2]) is 14 nM. Also, the SI in the series with HIV-1 was over 6993.
With `CCOC(=O)Nc1nc(Cc2c(Cl)cccc2Cl)nc(Nc2ccc(C#N)cc2)n1` [Compound 37], the half-maximal inhibitory concentration (IC50) in the series on HIV-1 (setting [1]) turned out to be 11 nM. Moreover, the SI in the series on HIV-1 turned out to be 7948. The same compound had a CC50 in the series on MT-4 cells of 85000 nM.
For `COc1cc(Cc2nc(N)nc(Nc3ccc(C#N)cc3)n2)cc(OC)c1` [Compound 53], in that order: 410 nM, over 48 and over 20000 nM.
`N#Cc1ccc(Nc2nc(N)nc(Cc3c(Cl)cccc3Cl)n2)cc1` [Compound 1, 4-[[4-amino-6-[(2,6-dichlorophenyl)methyl]-1,3,5-triazin-2-yl]amino]benzonitrile]: in the series with HIV-1 (setting [2]), the IC50 turned out to be 2 nM. Also, the SI in the series on HIV-1 is reported as over 42553.
`N#Cc1ccc(Nc2nc(Cc3c(Cl)cccc3Cl)nc(NC(=N)N)n2)cc1` [Compound 20, N-[4-[(4-cyanophenyl)amino]-6-[(2,6-dichlorophenyl)methyl]-1,3,5-triazin-2-yl]-guanidine]: the IC50 in the series on HIV-1 (setting [2]) is over 100000 nM. Also, the SI with HIV-1 was under 1.
With `N#Cc1ccc(Nc2nc(N)nc(Cc3cccc(OC(F)(F)F)c3)n2)cc1` [Compound 45], the concentration for half-maximal inhibition (IC50) with HIV-1 (setting [1]) is 430 nM. The SI in the series on HIV-1 is on record as over 233. For the same compound, the cytotoxic concentration (CC50) in the series with MT-4 cells is over 100000 nM.
In the series with HIV-1 (Human immunodeficiency virus 1, MT4), `N#Cc1ccc(Nc2nc(N)nc(Cc3c(Cl)ccc4[nH]ccc34)n2)cc1` [Compound 8, 4-[[4-amino-6-[(5-chloro-1H-indol-4-yl)methyl]-1,3,5-triazin-2-yl]amino]benzonitrile] gave an IC50 of 300 nM. Further, the SI with HIV-1 is recorded as 4806.
Turning to `N#Cc1ccc(Nc2nc(Cc3c(Cl)cccc3Cl)nc(NCC(=O)O)n2)cc1` [Compound 16, N-[4-[(4-cyanophenyl)-amino]-6-[(2,6-dichlorophenyl)methyl]-1,3,5-triazin-2-yl]glycine], the 50% inhibitory concentration (IC50) with HIV-1 (setting [2]) worked out at 2800 nM. In addition, in the series on HIV-1, the SI stood at 28.
With `N#Cc1ccc(Nc2nc(Cc3c(Cl)cccc3Cl)nc(Nc3ccc(C#N)cc3)n2)cc1` [Compound 11, N,N′-[6-[(2,6-dichlorophenyl)methyl]1,3,5-triazin-2,4-diyl]bis[4-aminobenzonitrile]], the IC50 in the series on HIV-1 (setting [1]) was over 10400 nM. Further, the SI in the series on HIV-1 was under 1. Further, the CC50 in the series with MT-4 cells came to 6000 nM.
Take `N#Cc1cccc(Nc2nc(N)nc(Cc3c(Cl)cccc3Cl)n2)c1` [Compound 4]: the concentration for half-maximal inhibition (IC50) with HIV-1 (setting [1]) stood at 240 nM. The SI with HIV-1 is 224. For the same compound, the CC50 with MT-4 cells was 53600 nM.
Turning to `Cc1ccc(C)c(Cc2nc(N)nc(Nc3ccc(C#N)cc3)n2)c1` [Compound 49], in the series on HIV-1 (setting [1]), the concentration for half-maximal inhibition (IC50) was found to be 91 nM. For the same compound, in the series on HIV-1, the SI is listed as over 220. The compound further displayed a CC50 with MT-4 cells of over 20000 nM.
As to `N#Cc1ccc(Nc2nc(N)nc(Cc3cc(C(F)(F)F)ccc3C(F)(F)F)n2)cc1` [Compound 56], the IC50 in the series on HIV-1 (setting [1]) was over 74400 nM. In the series with MT-4 cells, the CC50 was over 100000 nM.
On to `CONc1nc(Cc2c(Cl)cccc2Cl)nc(Nc2ccc(C#N)cc2)n1` [Compound 36], for which the half-maximal inhibitory concentration (IC50) with HIV-1 (setting [1]) was found to be 5 nM. Besides, in the series on HIV-1, the SI stood at 8097. Also, it took 40900 nM to reach half-maximal cytotoxicity in the series with MT-4 cells (CC50).
Regarding `CN(C)c1nc(Cc2c(Cl)cccc2Cl)nc(N(c2ccc(C#N)cc2)c2ccc(C#N)cc2)n1` [Compound 38, 4,4′-[[4-[(2,6-dichlorophenyl)methyl]-6-(dimethylamino)-1,3,5-triazin-2-yl]imino]bisbenzonitrile], the 50% inhibitory concentration (IC50) in the series on HIV-1 (setting [2]) was over 100000 nM.
With `CN(C)CCNc1nc(Cc2c(Cl)cccc2Cl)nc(Nc2ccc(C#N)cc2)n1` [Compound 29], the IC50 in the series on HIV-1 (setting [1]) was 5 nM. Besides, in the series with HIV-1, the SI is recorded as 1741. The midpoint of cytotoxicity in the series with MT-4 cells, the CC50, lay at 8700 nM.
For `N#Cc1ccc(Nc2nc(N)nc(Cc3ccccc3Cl)n2)cc1` [Compound 3], in that order: 13 nM, 3972 and 51600 nM.
Turning to `N#Cc1ccc(Nc2nc(N)nc(Cc3ccccc3)n2)cc1` [Compound 2], the concentration for half-maximal inhibition (IC50) in the series with HIV-1 (setting [1]) amounted to 290 nM. Moreover, the SI with HIV-1 was over 350. In the series on MT-4 cells, this compound had a CC50 of over 100000 nM.
The matching figures for `N#Cc1ccc(Nc2nc(Cc3c(Cl)cccc3Cl)nc(NCCO)n2)cc1` [Compound 18]: 1 nM, over 2030 and over 20000 nM.
Consider `N#Cc1ccc(Nc2nc(Cc3c(Cl)cccc3Cl)nc(NCCCO)n2)cc1` [Compound 25], for which the half-inhibitory concentration (IC50) in the series with HIV-1 (setting [1]) came to 29 nM. The SI with HIV-1 is on record as 1773. In the series with MT-4 cells, this compound came in with a CC50 of 51600 nM.
As for `N#Cc1ccc(Nc2nc(Cc3c(Cl)cccc3Cl)nc(NO)n2)cc1` [Compound 33, 4-[[4-[(2,6-dichlorophenyl)methyl]-6-(hydroxyamino)-1,3,5-triazin-2-yl]amino]benzonitrile], in the series with HIV-1 (setting [2]), the IC50 turned out to be 2 nM. Besides, in the series on HIV-1, the SI was determined as 6272.
Take `CC(=O)Nc1nc(Cc2c(Cl)cccc2Cl)nc(N(C(C)=O)c2ccc(C#N)cc2)n1` [Compound 40]: the half-inhibitory concentration (IC50) in the series on HIV-1 (setting [1]) was found to be 2 nM. Further, in the series on HIV-1, the SI is given as over 41666. In the series on MT-4 cells, this compound showed a cytotoxic concentration (CC50) of over 100000 nM.
Regarding `N#Cc1ccc(Nc2nc(Cc3c(Cl)cccc3Cl)nc(NN)n2)cc1` [Compound 15, 4-[[4-[(2,6-dichlorophenyl)methyl]-6-hydrazino-1,3,5-triazin-2yl]amino]benzonitrile], in the series with HIV-1 (setting [2]), the IC50 is 61 nM. In addition, in the series on HIV-1, the SI turned out to be 732.
As to `CN(C)c1nc(Cc2c(Cl)cccc2Cl)nc(Nc2ccc(C#N)cc2)n1` [Compound 10], the half-inhibitory concentration (IC50) with HIV-1 (setting [1]) was 170 nM. Moreover, the SI in the series on HIV-1 is given as over 602. In the series on MT-4 cells, the CC50 is over 100000 nM.
The matching figures for `COc1ccc(C(C)=O)cc1Cc1nc(N)nc(Nc2ccc(C#N)cc2)n1` [Compound 60]: 39 nM, 1841 and 71400 nM.
`CN(C)C=Nc1nc(Cc2c(Cl)cccc2Cl)nc(Nc2ccc(C#N)cc2)n1` [Compound 62, 4-[[4-[(2,6-dichlorophenyl)methyl]-6-[[(dimethylamino)methylene]amino]-1,3,5-triazin-2-yl]amino]benzonitrile]: in the series with HIV-1 (setting [2]), the half-maximal inhibitory concentration (IC50) was found to be 2 nM. Also, the SI in the series on HIV-1 is on record as over 41666.
The matching figures for `N#Cc1ccc(Nc2nc(Cc3c(Cl)cccc3Cl)nc(NCC(N)=O)n2)cc1` [Compound 14, [N-[4-[(4-cyano-phenyl)amino]-6-[(2,6-dichlorophenyl)methyl]-1,3,5-triazin-2-yl]]aminoacetamide]: 31 nM and 293.
